In patent publication US20210045385A1, “PYRIDAZINONE-SUBSTITUTED KETOXIMES AS HERBICIDES” (FMC Corporation, priority 2018, published 2021):

What was measured:
Format in all cases: in vivo
[1] = test system: ragweed (common ragweed, Ambrosia elatior); test: Test A preemergence, visual plant response rating; settings: for Ragweed plant response rating: 125 g ai/ha, preemergence, 0 to 100 scale, 0 no effect, 100 complete control; for Ragweed plant response rating (0 to 100 scale): 500 g ai/ha Preemergence, approx. 10 days
Procedure, shortened: (§1)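 Preemergence: seeds in loam/sand blend given directed soil spray of compound in non-phytotoxic solvent with surfactant. Postemergence: plants 2–10 cm, one- to two-leaf stage, sprayed with same formulation. Visual injury rated vs untreated controls after ~10 days in greenhouse, 0 (no effect) to 100 (complete control).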

[2] = test system: pigweed (Amaranthus retroflexus); test: Test A preemergence, visual plant response rating; settings: for Pigweed plant response rating: 125 g ai/ha, preemergence, 0 to 100 scale, 0 no effect, 100 complete control; for Pigweed plant response rating (0 to 100 scale): 500 g ai/ha Preemergence, approx. 10 days
Procedure, shortened: as §1

[3] = test system: barnyardgrass (Echinochloa crus-galli); test: Test A preemergence, visual plant response rating; settings: for Barnyardgrass plant response rating: 125 g ai/ha, preemergence, 0 to 100 scale, 0 no effect, 100 complete control; for Barnyardgrass plant response rating (0 to 100 scale): 500 g ai/ha Preemergence, approx. 10 days
Procedure, shortened: as §1

[4] = test system: Italian ryegrass (Lolium multiflorum); test: Test A preemergence, visual plant response rating; settings: for Ryegrass, Italian plant response rating: 125 g ai/ha, preemergence, 0 to 100 scale, 0 no effect, 100 complete control; for Ryegrass, Italian plant response rating (0 to 100 scale): 500 g ai/ha Preemergence, approx. 10 days
Procedure, shortened: as §1

[5] = test system: foxtail, giant (giant foxtail, Setaria faberii); test: Test A preemergence, visual plant response rating; settings: for Foxtail, Giant plant response rating: 125 g ai/ha, preemergence, 0 to 100 scale, 0 no effect, 100 complete control; for Foxtail, Giant plant response rating (0 to 100 scale): 500 g ai/ha Preemergence, approx. 10 days
Procedure, shortened: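 Compared with untreated controls, treated plants received a visual injury score on a 0–100 scale around 10 days after application. The compound, in a non-phytotoxic solvent with surfactant, was given as a preemergence soil spray or postemergence at the one- to two-leaf stage.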

[6] = test system: kochia (Kochia scoparia); test: Test A preemergence, visual plant response rating; settings: for Kochia plant response rating: 125 g ai/ha, preemergence, 0 to 100 scale, 0 no effect, 100 complete control; for Kochia plant response rating (0 to 100 scale): 500 g ai/ha Preemergence, approx. 10 days
Procedure, shortened: as §1

[7] = test system: galium (catchweed bedstraw, Galium aparine); test: Test A postemergence, visual plant response rating; settings: for Galium plant response rating (0 to 100 scale): 500 g ai/ha, postemergence, 0 is no effect, 100 is complete control; for Galium plant response rating: Postemergence, 125 g ai/ha, 0 to 100 scale (0 no effect, 100 complete control)
Procedure, shortened: as §1

[8] = test system: ragweed (common ragweed, Ambrosia elatior); test: Test A postemergence, visual plant response rating; settings: for Ragweed plant response rating (0 to 100 scale): 500 g ai/ha, postemergence, 0 is no effect, 100 is complete control; for Ragweed plant response rating: Postemergence, 125 g ai/ha, 0 to 100 scale (0 no effect, 100 complete control)
Procedure, shortened: as §1

[9] = test system: pigweed (Amaranthus retroflexus); test: Test A postemergence, visual plant response rating; settings: for Pigweed plant response rating (0 to 100 scale): 500 g ai/ha, postemergence, 0 is no effect, 100 is complete control; for Pigweed plant response rating: Postemergence, 125 g ai/ha, 0 to 100 scale (0 no effect, 100 complete control)
Procedure, shortened: as §1

[10] = test system: barnyardgrass (Echinochloa crus-galli); test: Test A postemergence, visual plant response rating; settings: for Barnyardgrass plant response rating (0 to 100 scale): 500 g ai/ha, postemergence, 0 is no effect, 100 is complete control; for Barnyardgrass plant response rating: Postemergence, 125 g ai/ha, 0 to 100 scale (0 no effect, 100 complete control)
Procedure, shortened: as §1

[11] = test system: blackgrass (Alopecurus myosuroides); test: Test A postemergence, visual plant response rating; settings: for Blackgrass plant response rating (0 to 100 scale): 500 g ai/ha, postemergence, 0 is no effect, 100 is complete control; for Blackgrass plant response rating: Postemergence, 125 g ai/ha, 0 to 100 scale (0 no effect, 100 complete control)
Procedure, shortened: as §1

[12] = test system: corn (Zea mays); test: Test A postemergence, visual plant response rating; settings: for Corn plant response rating (0 to 100 scale): 500 g ai/ha, postemergence, 0 is no effect, 100 is complete control; for Corn plant response rating: Postemergence, 125 g ai/ha, 0 to 100 scale (0 no effect, 100 complete control)
Procedure, shortened: as §1

[13] = test system: Italian ryegrass (Lolium multiflorum); test: Test A postemergence, visual plant response rating; settings: for Ryegrass, Italian plant response rating (0 to 100 scale): 500 g ai/ha, postemergence, 0 is no effect, 100 is complete control; for Ryegrass, Italian plant response rating: Postemergence, 125 g ai/ha, 0 to 100 scale (0 no effect, 100 complete control)
Procedure, shortened: as §1

[14] = test system: foxtail, giant (giant foxtail, Setaria faberii); test: Test A postemergence, visual plant response rating; settings: for Foxtail, Giant plant response rating (0 to 100 scale): 500 g ai/ha, postemergence, 0 is no effect, 100 is complete control; for Foxtail, Giant plant response rating: Postemergence, 125 g ai/ha, 0 to 100 scale (0 no effect, 100 complete control)
Procedure, shortened: as §1

[15] = test system: wheat (Triticum aestivum); test: Test A postemergence, visual plant response rating; settings: for Wheat plant response rating (0 to 100 scale): 500 g ai/ha, postemergence, 0 is no effect, 100 is complete control; for Wheat plant response rating: Postemergence, 125 g ai/ha, 0 to 100 scale (0 no effect, 100 complete control)
Procedure, shortened: as §1

[16] = test system: kochia (Kochia scoparia); test: Test A postemergence, visual plant response rating; settings: for Kochia plant response rating (0 to 100 scale): 500 g ai/ha, postemergence, 0 is no effect, 100 is complete control; for Kochia plant response rating: Postemergence, 125 g ai/ha, 0 to 100 scale (0 no effect, 100 complete control)
Procedure, shortened: as §1

[17] = test system: sedge, umbrella (small-flower umbrella sedge, Cyperus difformis); test: Test B flooded paddy test, visual plant response rating; settings: 250 g ai/ha, Flood, applied to paddy water, 2-leaf stage, evaluated after 13 to 15 days
Procedure, shortened: (§2)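 Compounds added straight into paddy water of pots flooded to 3 cm, with 2-leaf-stage plants of the four species; water level held throughout.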

[18] = test system: barnyardgrass (Echinochloa crus-galli); test: as above; settings: 250 g ai/ha, Flood, applied to paddy water, 2-leaf stage, evaluated after 13 to 15 days
Procedure, shortened: as §2

[19] = test system: ducksalad (Heteranhera limosa); test: as above; settings: 250 g ai/ha, Flood, applied to paddy water, 2-leaf stage, evaluated after 13 to 15 days
Procedure, shortened: as §2

[20] = test system: rice (Oryza sativa); test: as above; settings: 250 g ai/ha, Flood, applied to paddy water, 2-leaf stage, evaluated after 13 to 15 days
Procedure, shortened: as §2

| SMILES | Ragweed plant response rating [1] | Ragweed plant response rating (0 to 100 scale) [1] | Pigweed plant response rating [2] | Pigweed plant response rating (0 to 100 scale) [2] | Barnyardgrass plant response rating [3] | Barnyardgrass plant response rating (0 to 100 scale) [3] | Ryegrass, Italian plant response rating [4] | Ryegrass, Italian plant response rating (0 to 100 scale) [4] | Foxtail, Giant plant response rating [5] | Foxtail, Giant plant response rating (0 to 100 scale) [5] | Kochia plant response rating [6] | Kochia plant response rating (0 to 100 scale) [6] | Galium plant response rating (0 to 100 scale) [7] | Galium plant response rating [7] | Ragweed plant response rating (0 to 100 scale) [8] | Ragweed plant response rating [8] | Pigweed plant response rating (0 to 100 scale) [9] | Pigweed plant response rating [9] | Barnyardgrass plant response rating (0 to 100 scale) [10] | Barnyardgrass plant response rating [10] | other results |
| --- | --- | --- | --- | --- | --- | --- | --- | --- | --- | --- | --- | --- | --- | --- | --- | --- | --- | --- | --- | --- | --- |
| CO/N=C(/c1ccccc1F)c1c(O)c(C)nn(C)c1=O [Compound 62] | 0 | 30 | 0 | 0 | 0 | 0 | 10 | 40 | 0 | 0 | 0 | 0 | 70 | 20 | 40 | 20 | 30 | 10 | 0 | 0 | Blackgrass plant response rating (0 to 100 scale) [11]: 10; Blackgrass plant response rating [11]: 10; Corn plant response rating (0 to 100 scale) [12]: 0; Corn plant response rating [12]: 0; Ryegrass, Italian plant response rating (0 to 100 scale) [13]: 20; Ryegrass, Italian plant response rating [13]: 0; Foxtail, Giant plant response rating (0 to 100 scale) [14]: 10; Foxtail, Giant plant response rating [14]: 0; Wheat plant response rating (0 to 100 scale) [15]: 0; Wheat plant response rating [15]: 0; Kochia plant response rating (0 to 100 scale) [16]: 20; Kochia plant response rating [16]: 0; Plant response rating, Sedge, Umbrella (0 to 100 scale, 0 is no effect, 100 is complete control) [17]: 0; Plant response rating, Barnyardgrass (0 to 100 scale, 0 is no effect, 100 is complete control) [18]: 0; Plant response rating, Ducksalad (0 to 100 scale, 0 is no effect, 100 is complete control) [19]: 0; Plant response rating, Rice (0 to 100 scale, 0 is no effect, 100 is complete control) [20]: 0 |
| CON=C(c1cccc(F)c1)c1c(O)c(C)nn(C)c1=O [Compound 64] | 10 | 20 | 0 | 10 | 0 | 0 | 30 | 60 | 0 | 0 | 0 | 0 | 80 | 70 | 50 | 20 | 40 | 20 | 20 | 20 | Blackgrass plant response rating (0 to 100 scale) [11]: 20; Blackgrass plant response rating [11]: 0; Corn plant response rating (0 to 100 scale) [12]: 0; Corn plant response rating [12]: 0; Ryegrass, Italian plant response rating (0 to 100 scale) [13]: 70; Ryegrass, Italian plant response rating [13]: 50; Foxtail, Giant plant response rating (0 to 100 scale) [14]: 10; Foxtail, Giant plant response rating [14]: 0; Wheat plant response rating (0 to 100 scale) [15]: 0; Wheat plant response rating [15]: 0; Kochia plant response rating (0 to 100 scale) [16]: 60; Kochia plant response rating [16]: 20; Plant response rating, Sedge, Umbrella (0 to 100 scale, 0 is no effect, 100 is complete control) [17]: 0; Plant response rating, Barnyardgrass (0 to 100 scale, 0 is no effect, 100 is complete control) [18]: 0; Plant response rating, Ducksalad (0 to 100 scale, 0 is no effect, 100 is complete control) [19]: 0; Plant response rating, Rice (0 to 100 scale, 0 is no effect, 100 is complete control) [20]: 0 |
| CON=C(c1cc(Cl)ccc1C)c1c(O)c(C)nn(C)c1=O [Compound 65] | 20 | 100 | 50 | 100 | 20 | 50 | 0 | 30 | 20 | 40 | 0 | 30 | 90 | 70 | 80 | 60 | 90 | 90 | 40 | 30 | Blackgrass plant response rating (0 to 100 scale) [11]: 30; Blackgrass plant response rating [11]: 10; Corn plant response rating (0 to 100 scale) [12]: 0; Corn plant response rating [12]: 0; Ryegrass, Italian plant response rating (0 to 100 scale) [13]: 90; Ryegrass, Italian plant response rating [13]: 50; Foxtail, Giant plant response rating (0 to 100 scale) [14]: 70; Foxtail, Giant plant response rating [14]: 30; Wheat plant response rating (0 to 100 scale) [15]: 20; Wheat plant response rating [15]: 0; Kochia plant response rating (0 to 100 scale) [16]: 80; Kochia plant response rating [16]: 70; Plant response rating, Sedge, Umbrella (0 to 100 scale, 0 is no effect, 100 is complete control) [17]: 0; Plant response rating, Barnyardgrass (0 to 100 scale, 0 is no effect, 100 is complete control) [18]: 0; Plant response rating, Ducksalad (0 to 100 scale, 0 is no effect, 100 is complete control) [19]: 0; Plant response rating, Rice (0 to 100 scale, 0 is no effect, 100 is complete control) [20]: 0 |
